Results reported in patent US9708602B2, “Screening for inhibitors of ribosome biogenesis” (priority 2013, dated 2017).

Key:
[1] = tested on: MCrg* cells; test: Probing MCrg* with ribosome-targeting antibiotics: whole-cell growth and mAzami/mCherry fluorescence ratio; format: cell-based, E. coli
Method: (§1) Whole-cell analyses (A-B): MCrg* cells were cultured in at 25° C. in M9 medium for 7 hours in the absence and presence of antibiotics, as indicated. Samples were taken every hour. (A) OD600 values were determined and (B) mAzami and mCherry fluorescence emission were detected and ratios were calculated. Fluorescence ratios of MCrg* were normalized to 1. Exemplary growth curves are given and fluorescence ratios are means from three independent experiments; error bars show s.d. Analyses of isolated ribosomal particles (C-H and J-M): Sucrose density gradient (10-25%) centrifugation profiles from (C) control cells with no antibiotic (none), (D) chloramphenicol (Cam), (E) erythromycin (Ery), (F) kanamycin (Kan) and (G) neomycin (Neo) treated cells. Sucrose gradient fractions from (C) to (G) were analyzed for fluorescence by a micro plate reader. A254 profiles and fluorescence bar charts were superimposed for (H) control cells with no antibiotic (none), (J) chloramphenicol (Cam), (K) erythromycin (Ery), (L) kanamycin (kan) and (M) neomycin (Neo) treated cells. Cells in presence and absence of antibiotics were cultured in LB medium at 25° C. for 3 hours before subsequent polysome analysis. Left shifted peaks of the large subunit are indicated by horizontal arrows, abnormal portions of the small subunit by vertical arrows; Bars with black lines: normalized mCherry fluorescence; Black bars: normalized mAzami fluorescence. Fluorescence was normalized to the first polysome peak (“disome”) where subunits are present in 1:1 ratio.
(§2) Using MCrg*, it was investigated, whether treatment of cells with ribosome targeting antibiotics results in assembly defects of both ribosomal subunits. The antibiotics tested were chloramphenicol, erythromycin and neomycin, which are known to cause assembly defects of both ribosomal subunits, and kanamycin, which was so far not investigated for its potential to cause ribosome assembly defects. MCrg* cells were cultured in M9 medium for seven hours in the absence or presence of chloramphenicol (7 μg/ml), erythromycin (100 μg/ml), kanamycin (7 μg/ml) or neomycin (7 μg/ml). […] Treatment with chloramphenicol, by contrast, led to an increased fluorescence ratio, with a maximum of 1.20 after 7 hours. […] This hypothesis was tested by analyzing ribosome profiles obtained from MCrg* cells that grew in the presence of the antibiotics or without (FIG. 15C-G). […] The 70S peak and the polysomes (not shown) are reduced in intensity since no chloramphenicol was added prior to harvesting to prevent 70S run off.

[2] = tested on: ribosomal subunits of MCrg* cells; test: Sucrose density gradient ribosome profiles (A254 and fluorescence of fractions) of antibiotic treated MCrg* cells; format: cell-based, E. coli; conditions: for 30S peak region in A254 ribosome profile / 50S peak in A254 ribosome profile: cells cultured with antibiotic in LB medium at 25° C. for 3 hours, 10-25% sucrose gradient; for green (mAzami, large subunit) fluorescence in overlay of A254 and fluorescence profiles: sucrose gradient fractions, micro plate reader
Method: as §1, §2
When focusing on the overlay diagrams (combining A254 and fluorescence read outs) (FIG. 15H, J-M), ribosome profiles from non treated cells are basically congruent (FIG. 15H). […] These peaks of green fluorescence presumably represent defective assembly intermediates of the large subunit that are caused by all the antibiotics used in this study, but to different extend. […] To analyze eventual defects of the small subunit in more detail, the red fluorescence profiles were aligned and the one derived from non treated cells was compared with all the others obtained from antibiotic treated cells. […] A more thorough analysis including quantitation of the 16S and 23S rRNA within the sucrose fractions confirmed the presence of assembly intermediates.
E. coli cells were inoculated from stationary cultures and incubated until mid-logarithmic phase (OD600=0.6-0.8). In order to record polysome profiles, cells were sedimented, resuspended and lysed. After centrifugation, lysates of 10 A260 units were loaded onto 5-45% sucrose gradients for polysome profiles or 10-40% gradients for subunit separation. Ultracentrifugation was performed at 41.000 rpm (3 h; polysome profiles) or 23.000 rpm (16 h, subunit separation). Ribosomal components in the gradients were analyzed by recording the A254 values and collecting 200 μl and 50 μl fractions, respectively, that were later examined in 96-well plates on fluorescence by using a plate reader.

[3] = tested on: E. coli MC4100 and MC-RG1 cells; test: Detection of ribosome assembly defects: growth (A650) and EGFP/mCherry fluorescence time course in 96-well plates; format: cell-based; conditions: 30° C., 96-well plate
Description: Monitoring biogenesis and assembly of ribosomal subunits also allows the detection of abnormalities in ribosome biogenesis and assembly processes. […] Chloramphenicol primarily binds to the large subunit and thereby inhibits the peptidyl transfer reaction. Alongside a resulting shut-down of protein synthesis, accumulating precursor particles of both ribosomal subunits have been observed. Therefore, treatment of cells with chloramphenicol causes precursor accumulation and assembly defects of ribosomal subunits. E. coli MC4100 and MC-RG1 cells were transferred to 96-well plates and incubated at 30° C. in a plate reader. After one hour, wild-type and reporter cells were treated with increasing amounts of chloramphenicol and incubation was continued for another six more hours. A650 values, EGFP and mCherry specific fluorescence intensities were automatically detected. In the absence of chloramphenicol, the growth curve of the reporter strain reached a maximum A650 of 0.5. […] In vivo fluorescence recordings of the E. coli MC4100rp/S-egfp,rpsB-mcherry-ΔygdP cells growing in 96-well plates were performed and fluorescent signals measured. EGFP/mCherry fluorescence intensity ratios differed clearly when comparing MC4100rp/S-egfp,rpsB-mcherry (RN55b) with MC4100rplS-egfp,rpsB-mcherry-ΔygdP reporter strains. […] The overall decreased EGFP/mCherry fluorescence ratio values of the knock-out strain compared to the RN55b reporter strain are caused by proportional lower EGFP fluorescence intensities. In summary, fluorescence recordings of reporter strains are suitable to detect changes in the level of ribosomal subunits, e.g. due to biogenesis defects.
Cells grown to stationary phase were diluted to an OD600 of 0.05 and transferred into 96-well plates, such that each well contained an initial volume of 100 μl. […] Cells were further incubated in the plate reader for several hours and fluorescence as well as A650 data were collected every 10 minutes. Mean values were calculated and MC4100 fluorescence background values were subtracted from the reporter strain values.

| Molecule | normalized fluorescence ratio (mAzami/mCherry) ([1]; erythromycin 100 μg/ml, after 5 hours, untreated MCrg* normalized to 1) | 30S peak region in A254 ribosome profile [2] | 50S peak in A254 ribosome profile [2] | green (mAzami, large subunit) fluorescence in overlay of A254 and fluorescence profiles [2] | change in the fluorescence ratio (mAzami/mCherry) ([1]; 7 μg/ml, seven hours time course) | cell growth (OD600) ([1]; M9 medium, seven hours, 25° C., chloramphenicol 7 μg/ml, erythromycin 100 μg/ml, kanamycin 7 μg/ml, neomycin 7 μg/ml) | normalized fluorescence ratio (mAzami/mCherry), maximum ([1]; chloramphenicol 7 μg/ml, after 7 hours, untreated MCrg* normalized to 1) | concentration above which cells did not grow any further ([3]; added after one hour, six more hours incubation) | cell growth (A650) ([3]; increasing amounts added after one hour, six more hours incubation) | EGFP and mCherry fluorescence ([3]; increasing concentrations) |
| --- | --- | --- | --- | --- | --- | --- | --- | --- | --- | --- |
| CC[C@H]1OC(=O)[C@H](C)[C@@H](O[C@H]2C[C@@](C)(OC)[C@@H](O)[C@H](C)O2)[C@H](C)[C@@H](O[C@@H]2O[C@H](C)C[C@H](N(C)C)[C@H]2O)[C@](C)(O)C[C@@H](C)C(=O)[C@H](C)[C@@H](O)[C@]1(C)O [erythromycin] | 0.95 | 30S peak had a shoulder on the left | reduced and left shifted 50S peaks | portion of green fluorescence within the region of the 30S peak |  |  |  |  |  |  |
| neomycin |  | additional peak on the left of the 30S peak | slight reduction and left shift of the 50S peak | green fluorescent peaks of weaker intensity but at similar positions within the profile | did not show a significant change in the fluorescence ratio |  |  |  |  |  |
| O=C(N[C@H](CO)[C@H](O)c1ccc([N+](=O)[O-])cc1)C(Cl)Cl [chloramphenicol] |  | additional peak (left-lateral of 30S) | reduced and left shifted 50S peaks | portion of green fluorescence within the region of the 30S peak |  | strongest growth defects | 1.20 | higher than 15.5 μM | dosedependent reduction of cell growth | decreased with increasing concentrations |
